The results in this text go back to PubChem BioAssay AID200 (DTP/NCI, 2004).

Where “and” joins values, the source holds several entries; their conditions need not be identical. Identical values can stand only once. Inconclusive results and toxic doses are left out.

The subject of this test is B6C3F1 mice, B16 melanoma ip, median survival T/C. In words: NCI In Vivo Anticancer Drug Screen. Data for tumor model B16 Melanoma (intraperitoneal) in B6C3F1 mice. The conditions noted are these: endpoint: median survival time, higher = longer survival. The method in brief: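 Values are T/C ratios: the measurement in treated animals divided by that in vehicle-treated controls, using survival or tumor size in mice carrying transplantable tumors.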

Where [1] appears, read: dose: 6.25 mg/kg/injection, schedule: Q01DX009 (ip), vehicle: saline.
Where [2] appears, read: dose: 12.5 mg/kg/injection, schedule: Q01DX009 (ip), vehicle: saline.
[3] abbreviates: dose: 25.0 mg/kg/injection, schedule: Q01DX009 (ip), vehicle: saline.
The mark [4] stands for this setting: dose: 50.0 mg/kg/injection, schedule: Q01DX009 (ip), vehicle: saline.
[5] abbreviates: dose: 100.0 mg/kg/injection, schedule: Q01DX009 (ip), vehicle: saline.
Where [6] appears, read: dose: 12.5 mg/kg/injection, schedule: Q01DX009 (ip), vehicle: saline with Tween-80.
[7] abbreviates: dose: 25.0 mg/kg/injection, schedule: Q01DX009 (ip), vehicle: saline with Tween-80.
Setting [8] is: dose: 50.0 mg/kg/injection, schedule: Q01DX009 (ip), vehicle: saline with Tween-80.
Where [9] appears, read: dose: 100.0 mg/kg/injection, schedule: Q01DX009 (ip), vehicle: saline with Tween-80.
Setting [10] is: dose: 200.0 mg/kg/injection, schedule: Q01DX009 (ip), vehicle: saline with Tween-80.
[11] abbreviates: dose: 400.0 mg/kg/injection, schedule: Q01DX009 (ip), vehicle: saline with Tween-80.
The mark [12] stands for this setting: dose: 200.0 mg/kg/injection, schedule: Q01DX009 (ip), vehicle: saline.

In the case of `Cc1ncc([N+](=O)[O-])n1CCO`, the T/C is 103 % of control (dose: 37.5 mg/kg/injection, schedule: Q01DX009 (ip), vehicle: Klucel (hydroxypropylcellulose) (HPC)); 100 % of control (dose: 75.0 mg/kg/injection, schedule: Q01DX009 (ip), vehicle: Klucel (hydroxypropylcellulose) (HPC)); 101 % of control (dose: 150.0 mg/kg/injection, schedule: Q01DX009 (ip), vehicle: Klucel (hydroxypropylcellulose) (HPC)); 92 % of control (dose: 300.0 mg/kg/injection, schedule: Q01DX009 (ip), vehicle: Klucel (hydroxypropylcellulose) (HPC)); 100 % of control (dose: 600.0 mg/kg/injection, schedule: Q01DX009 (ip), vehicle: Klucel (hydroxypropylcellulose) (HPC)).
On to `Nc1ncnc2c1ncn2C1OC(CO)C(O)C1O` (stereo not drawn), for which the T/C (dose: 1.56 mg/kg/injection, schedule: Q01DX009 (ip), vehicle: saline) is 94 % of control; the T/C (dose: 3.12 mg/kg/injection, schedule: Q01DX009 (ip), vehicle: saline) is 94 % of control; the T/C under setting [1] was 96 % of control; the T/C under setting [2] was 107 % of control; the T/C under setting [3] is 63 % of control; the T/C under setting [4] is 45 % of control. Further, under setting [5], the T/C is 37 % of control.
For the compound `COC(=O)C1OC(OC2=C(c3ccc(OC)cc3)C(=O)C(OC3OC(C(=O)OC)C(OC(C)=O)C(OC(C)=O)C3OC(C)=O)=C(c3ccc(OC)cc3)C2=O)C(OC(C)=O)C(OC(C)=O)C1OC(C)=O` (stereo not drawn), the T/C runs as follows: (dose: 0.78 mg/kg/injection, schedule: Q01DX009 (ip), vehicle: Klucel (hydroxypropylcellulose) (HPC)) 109 % of control; (dose: 1.56 mg/kg/injection, schedule: Q01DX009 (ip), vehicle: Klucel (hydroxypropylcellulose) (HPC)) 109 % of control; (dose: 3.13 mg/kg/injection, schedule: Q01DX009 (ip), vehicle: Klucel (hydroxypropylcellulose) (HPC)) 99 % of control; (dose: 6.25 mg/kg/injection, schedule: Q01DX009 (ip), vehicle: Klucel (hydroxypropylcellulose) (HPC)) 102 % of control; (dose: 12.5 mg/kg/injection, schedule: Q01DX009 (ip), vehicle: Klucel (hydroxypropylcellulose) (HPC)) 93 % of control.
`CN1CCN(CN2C(=O)C3C4C=CC(C3C2=O)C2C3C(=O)N(CN5CCN(C)CC5)C(=O)C3C42)CC1` (stereo not drawn): the T/C was 103 % of control (dose: 16.1 mg/kg/injection, schedule: Q01DX009 (ip), vehicle: water); 104 % of control (dose: 21.6 mg/kg/injection, schedule: Q01DX009 (ip), vehicle: water); 98 % of control (dose: 26.8 mg/kg/injection, schedule: Q01DX009 (ip), vehicle: water); 102 % of control (dose: 36.0 mg/kg/injection, schedule: Q01DX009 (ip), vehicle: water); 107 % of control (dose: 44.7 mg/kg/injection, schedule: Q01DX009 (ip), vehicle: water); 104 % of control (dose: 60.0 mg/kg/injection, schedule: Q01DX009 (ip), vehicle: water). The T/C is, setting by setting: (dose: 74.5 mg/kg/injection, schedule: Q01DX009 (ip), vehicle: water) 103 % of control; (dose: 100.0 mg/kg/injection, schedule: Q01DX009 (ip), vehicle: water) 120 % of control.
Take `CC(Oc1ccccc1-c1ccccc1)C(=O)N(C)C` (stereo not drawn): the T/C is 95 % of control under setting [6]; 100 % of control under setting [7]; 95 % of control under setting [8]; 98 % of control under setting [9]; 106 % of control under setting [10]; 100 % of control under setting [11].
As to `Nc1ncnc2c1cnn2Cc1ccc(Cl)cc1`, the T/C reads like this: under setting [8], 107 % of control; under setting [9], 100 % of control.
Turning to `C=C1C(=O)OC2/C=C(\CO)CC/C=C(\CO)CC(OC(=O)C(C)C)C12` (stereo not drawn), the T/C (dose: 3.75 mg/kg/injection, schedule: Q01DX009 (ip), vehicle: Klucel (hydroxypropylcellulose) (HPC)) was 103 % of control.
`CC1=C(C)C(=O)O[C@@H]([C@](C)(O)[C@]2(O)CC[C@@]3(O)[C@@H]4C[C@H]5O[C@]56CC=CC(=O)[C@]6(C)[C@H]4CC[C@]23C)C1`: the T/C by setting is: (dose: 1.56 mg/kg/injection, schedule: Q01DX009 (ip), vehicle: saline with Tween-80) 121 % of control; (dose: 3.12 mg/kg/injection, schedule: Q01DX009 (ip), vehicle: saline with Tween-80) 108 % of control; (dose: 6.25 mg/kg/injection, schedule: Q01DX009 (ip), vehicle: saline with Tween-80) 120 % of control; under setting [1], 120 % of control; under setting [6], 88 % of control; under setting [2], 153 % of control. For the same compound, the T/C under setting [3] was 175 % of control.
As to `NCCc1ccc(O)c(O)c1`, the T/C was 96 % of control under setting [4]; 106 % of control [middle of 4 runs] under setting [5]; 109 % of control [middle of 4 runs] under setting [12]; 115 % of control [middle of 4 runs] (dose: 400.0 mg/kg/injection, schedule: Q01DX009 (ip), vehicle: saline); 119 % of control (dose: 500.0 mg/kg/injection, schedule: Q01DX009 (ip), vehicle: saline); 114 % of control and 112 % of control and 118 % of control (dose: 600.0 mg/kg/injection, schedule: Q01DX009 (ip), vehicle: saline). Further, the T/C (dose: 800.0 mg/kg/injection, schedule: Q01DX009 (ip), vehicle: saline) is 121 % of control.
Take `c1ccc(CN2CCOC2)cc1`: the T/C is 100 % of control and 101 % of control under setting [2]; 101 % of control and 108 % of control under setting [3]; 98 % of control and 102 % of control under setting [4]; 112 % of control and 102 % of control under setting [5]; 113 % of control under setting [12].
In the case of `Cc1ccc2c(c1)Sc1ccc(N=NN(C)C)cc1N2C`, the T/C runs as follows: (dose: 6.25 mg/kg/injection, schedule: Q01DX009 (ip), vehicle: other) 100 % of control; (dose: 12.5 mg/kg/injection, schedule: Q01DX009 (ip), vehicle: other) 114 % of control; (dose: 25.0 mg/kg/injection, schedule: Q01DX009 (ip), vehicle: other) 114 % of control; (dose: 50.0 mg/kg/injection, schedule: Q01DX009 (ip), vehicle: other) 115 % of control.
Consider `N#CCCSC(=S)C1CCCC1=N` (stereo not drawn), for which the T/C reads like this: under setting [6], 103 % of control; under setting [7], 106 % of control; under setting [8], 98 % of control; under setting [9], 106 % of control; under setting [10], 103 % of control; under setting [11], 104 % of control.
Take `CNC(=S)C#N`: the T/C (dose: 12.5 mg/kg/injection, schedule: Q01DX009 (ip), vehicle: saline + Tween-80 + alcohol) is 119 % of control and the T/C (dose: 25.0 mg/kg/injection, schedule: Q01DX009 (ip), vehicle: saline + Tween-80 + alcohol) was 86 % of control.
With `CC(C)(O)/C=C/C(=O)[C@](C)(O)[C@H]1[C@H](O)C[C@@]2(C)[C@@H]3CC=C4[C@@H](C[C@H](O)C(=O)C4(C)C)[C@]3(C)C(=O)C[C@]12C`, the T/C is, setting by setting: (dose: 0.5 mg/kg/injection, schedule: Q01DX009 (ip), vehicle: saline + Tween-80 + alcohol) 102 % of control; (dose: 1.0 mg/kg/injection, schedule: Q01DX009 (ip), vehicle: saline + Tween-80 + alcohol) 98 % of control.
`C=C1C(O)C2(O)OCC34C(CC5C(C)=CC(=O)C(O)C5(C)C23)OC(=O)C(OC(=O)C/C=C(\C)CCCCC)C14` (stereo not drawn): the T/C is, setting by setting: (dose: 4.0 mg/kg/injection, schedule: Q01DX009 (ip), vehicle: saline + alcohol) 187 % of control; (dose: 4.8 mg/kg/injection, schedule: Q01DX009 (ip), vehicle: saline + Tween-80 + alcohol) 156 % of control; (dose: 8.0 mg/kg/injection, schedule: Q01DX009 (ip), vehicle: saline + Tween-80 + alcohol) 154 % of control; (dose: 8.0 mg/kg/injection, schedule: Q01DX009 (ip), vehicle: saline + alcohol) 187 % of control.
Regarding `CO[C@@]12[C@@H]3N[C@@H]3CN1C1=C(C(=O)C(NCC3CCCO3)=C(C)C1=O)[C@@H]2COC(N)=O` (stereo partly drawn), the T/C is 179 % of control (dose: 1.5 mg/kg/injection, schedule: Q04DX003 (ip), vehicle: distilled water + Tween-80); 172 % of control and 173 % of control and 178 % of control (dose: 3.0 mg/kg/injection, schedule: Q04DX003 (ip), vehicle: distilled water + Tween-80); 179 % of control and 207 % of control and 208 % of control (dose: 6.0 mg/kg/injection, schedule: Q04DX003 (ip), vehicle: distilled water + Tween-80); 185 % of control and 223 % of control and 240 % of control (dose: 12.0 mg/kg/injection, schedule: Q04DX003 (ip), vehicle: distilled water + Tween-80); 174 % of control and 258 % of control and 326 % of control (dose: 24.0 mg/kg/injection, schedule: Q04DX003 (ip), vehicle: distilled water + Tween-80).
As to `CC(=O)Nc1cc2oc3ccccc3c2cc1[N+](=O)[O-]`, the T/C was 88 % of control under setting [9] and 91 % of control under setting [11].
